Each compound was assayed against human somatostatin receptor subtype 5 (Homo sapiens, UniProt P35346) (assay: cAMP assay for SST5R (inhibition of cAMP via human SST5 receptor)). Conditions: not given.
Chain of human somatostatin receptor subtype 5 (P35346 whole entry): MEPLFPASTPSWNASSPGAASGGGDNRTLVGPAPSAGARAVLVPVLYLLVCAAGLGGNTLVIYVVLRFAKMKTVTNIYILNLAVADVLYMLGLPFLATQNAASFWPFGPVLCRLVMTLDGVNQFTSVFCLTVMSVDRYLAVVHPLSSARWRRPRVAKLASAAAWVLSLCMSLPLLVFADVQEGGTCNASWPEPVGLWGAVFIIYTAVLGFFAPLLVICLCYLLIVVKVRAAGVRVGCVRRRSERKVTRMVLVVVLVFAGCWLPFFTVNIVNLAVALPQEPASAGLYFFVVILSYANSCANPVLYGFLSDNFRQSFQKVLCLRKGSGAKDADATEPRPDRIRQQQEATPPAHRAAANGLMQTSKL

| Structure (SMILES) | EC50 [nM] |
| --- | --- |
| NCC1CN(c2c(-c3cc(Cl)cc(C(F)(F)F)c3)cncc2-c2nc3cc(F)cc(F)c3[nH]2)C1 [Compound 1-40, 1-(1-{3-[3-chloro-5-(trifluoromethyl)phenyl]-5-(4,6-difluoro-1H-1,3-benzodiazol-2-yl)pyridin-4-yl}azetidin-3-yl)methanamine] | 10 to 100 |
| NCC1(F)CN(c2c(-c3cc(F)cc(Cl)c3)cncc2-c2nc3cc(F)cc(F)c3[nH]2)C1 [Compound 1-62, 1-{1-[3-(3-chloro-5-fluorophenyl)-5-(4,6-difluoro-1H-1,3-benzodiazol-2-yl)pyridin-4-yl]-3-fluoroazetidin-3-yl}methanamine] | < 10 |
| N#Cc1c(F)ccc(-c2cncc(-c3nc4cccc(F)c4[nH]3)c2N2CC[C@H](N)C2)c1F [Compound 2-32, 3-{4-[(3S)-3-aminopyrrolidin-1-yl]-5-(4-fluoro-1H-1,3-benzodiazol-2-yl)pyridin-3-yl}-2,6-difluorobenzonitrile] | < 10 |
| N#Cc1cccc(-c2cncc(-c3nc4c(F)c(F)c(F)c(F)c4[nH]3)c2N2CC[C@H](N)C2)c1 [Compound 2-41, 3-{4-[(3S)-3-aminopyrrolidin-1-yl]-5-(4,5,6,7-tetrafluoro-1H-1,3-benzodiazol-2-yl)pyridin-3-yl}benzonitrile] | 10 to 100 |
| Cc1cc(F)cc(-c2cncc(-c3nc4cc(F)cc(F)c4[nH]3)c2N2CC(C(N)CO)C2)c1 (stereo not drawn) [Compound 1-49, 2-Amino-2-{1-[3-(4,6-difluoro-1H-1,3-benzodiazol-2-yl)-5-(3-fluoro-5-methylphenyl)pyridin-4-yl]azetidin-3-yl}ethan-1-ol] | < 10 |
| NCC1CN(c2c(-c3cc(F)c(F)c(F)c3)cncc2-c2nc3cc(F)cc(F)c3[nH]2)C1 [Compound 1-48, 1-{1-[3-(4,6-difluoro-1H-1,3-benzodiazol-2-yl)-5-(3,4,5-trifluorophenyl)pyridin-4-yl]azetidin-3-yl}methanamine] | < 10 |
| Cc1c(Cl)cccc1-c1cncc(-c2nc3cc(F)cc(F)c3[nH]2)c1N1CC(CN)C1 [Compound 1-66, 1-{1-[3-(3-chloro-2-methylphenyl)-5-(4,6-difluoro-1H-1,3-benzodiazol-2-yl)pyridin-4-yl]azetidin-3-yl}methanamine] | 10 to 100 |
| Cc1cc(Cl)cc(-c2cncc(-c3nc4cc(F)cc(F)c4[nH]3)c2N2CC(CN)C2)c1 [Compound 1-20, 1-{1-[3-(3-chloro-5-methylphenyl)-5-(4,6-difluoro-1H-1,3-benzodiazol-2-yl)pyridin-4-yl]azetidin-3-yl}methanamine] | < 10 |
| CC(N)C1CN(c2c(-c3nc4cc(F)cc(F)c4[nH]3)cncc2-c2cccc(F)c2O)C1 (stereo not drawn) [Compound 1-75, 2-{4-[3-(1-aminoethyl)azetidin-1-yl]-5-(4,6-difluoro-1H-1,3-benzodiazol-2-yl)pyridin-3-yl}-6-fluorophenol] | 10 to 100 |
| N#Cc1c(Cl)cccc1-c1cncc(-c2nc3cccc(F)c3[nH]2)c1N1CC[C@H](N)C1 [Compound 2-47, 2-{4-[(3S)-3-aminopyrrolidin-1-yl]-5-(4-fluoro-1H-1,3-benzodiazol-2-yl)pyridin-3-yl}-6-chlorobenzonitrile] | < 10 |
| NCC1CN(c2c(-c3nc4cc(F)cc(F)c4[nH]3)cncc2-c2cccc3ccccc23)C1 [Compound 1-52, 1-{1-[3-(4,6-difluoro-1H-1,3-benzodiazol-2-yl)-5-(naphthalen-1-yl)pyridin-4-yl]azetidin-3-yl}methanamine] | 10 to 100 |
| Cc1cccc(-c2cncc(-c3nc4c(F)cc(F)cc4[nH]3)c2N2CC(CN)C2)c1 [Compound 1-29, 1-{1-[3-(4,6-difluoro-1H-1,3-benzodiazol-2-yl)-5-(3-methylphenyl)pyridin-4-yl]azetidin-3-yl}methanamine] | < 10 |
| NCC1CN(c2c(-c3cccc(Cl)c3)cncc2-c2nc3c(F)cc(F)cc3[nH]2)C1 [Compound 1-53, 1-{1-[3-(3-chlorophenyl)-5-(4,6-difluoro-1H-1,3-benzodiazol-2-yl)pyridin-4-yl]azetidin-3-yl}methanamine] | < 10 |
| Cc1cc(F)cc(-c2cncc(-c3nc4cc(F)c(F)cc4[nH]3)c2N2CC(CN)C2)c1 [Compound 1-13, 1-{1-[3-(5,6-difluoro-1H-1,3-benzodiazol-2-yl)-5-(3-fluoro-5-methylphenyl)pyridin-4-yl]azetidin-3-yl}methanamine] | 10 to 100 |
| Cc1cc(F)cc(-c2cncc(-c3nc4cc(F)c(Cl)cc4[nH]3)c2N2CC(CN)C2)c1 [Compound 1-14, 1-{1-[3-(5-chloro-6-fluoro-1H-1,3-benzodiazol-2-yl)-5-(3-fluoro-5-methylphenyl)pyridin-4-yl]azetidin-3-yl}methanamine] | 10 to 100 |

Other lines, results leading:

| EC50 [nM] | Structure (SMILES) |
| --- | --- |
| < 10 | Cn1c(-c2cncc(-c3cccc(C#N)c3)c2N2CC[C@](C)(N)C2)nc2c(F)cccc21 [Compound 2-153, 3-{4-[(3S)-3-amino-3-methylpyrrolidin-1-yl]-5-(4-fluoro-1-methyl-1H-1,3-benzodiazol-2-yl)pyridin-3-yl}benzonitrile] |
| 100 to 1000 | N#Cc1cccc(-c2cncc(-c3nc4c(CO)cccc4[nH]3)c2N2CC[C@H](N)C2)c1 [Compound 2-91, 3-{4-[(3S)-3-aminopyrrolidin-1-yl]-5-[7-(hydroxymethyl)-1H-1,3-benzodiazol-2-yl]pyridin-3-yl}benzonitrile] |
| < 10 | C[C@]1(N)CCN(c2c(-c3ccc(F)c(C#N)c3)cncc2-c2nc3ncc(F)cc3[nH]2)C1 [Compound 2-168, 5-{4-[(3S)-3-amino-3-methylpyrrolidin-1-yl]-5-{6-fluoro-1H-imidazo[4,5-b]pyridin-2-yl}pyridin-3-yl}-2-fluorobenzonitrile] |
| < 10 | NC(=O)c1cccc(-c2cncc(-c3nc4cccc(F)c4[nH]3)c2N2CC[C@H](N)C2)c1 [Compound 2-85, 3-{4-[(3S)-3-aminopyrrolidin-1-yl]-5-(4-fluoro-1H-1,3-benzodiazol-2-yl)pyridin-3-yl}benzamide] |
| < 10 | Cc1ccc2nc(-c3cncc(-c4cc(F)cc(Cl)c4)c3N3CC[C@H](N)C3)[nH]c2c1 [Compound 2-102, (3S)-1-[3-(3-chloro-5-fluorophenyl)-5-(5-methyl-1H-1,3-benzodiazol-2-yl)pyridin-4-yl]pyrrolidin-3-amine] |
| 10 to 100 | Cc1cccc2nc(-c3cncc(-c4ccnc(C(N)=O)c4)c3N3CCC(C)(N)C3)[nH]c12 (stereo not drawn) [Compound 2-105, 4-(3-amino-3-methylpyrrolidin-1-yl)-5-(4-methyl-1H-1,3-benzodiazol-2-yl)-[3,4′-bipyridine]-2′-carboxamide] |
| < 10 | CCc1cccc2[nH]c(-c3cncc(-c4cccc(C#N)c4)c3N3CC[C@H](N)C3)nc12 [Compound 2-100, 3-{4-[(3S)-3-aminopyrrolidin-1-yl]-5-(4-ethyl-1H-1,3-benzodiazol-2-yl)pyridin-3-yl}benzonitrile] |
| 10 to 100 | N[C@H]1CCN(c2c(-c3cc(F)cc(Cl)c3)cncc2-c2nc3ccc(Cl)cc3[nH]2)C1 [Compound 2-95, (3S)-1-[3-(5-chloro-1H-1,3-benzodiazol-2-yl)-5-(3-chloro-5-fluorophenyl)pyridin-4-yl]pyrrolidin-3-amine] |
| < 10 | Cc1cccc2nc(-c3cncc(-c4cc(F)cc(C(N)=O)c4)c3N3CCC(C)(N)C3)[nH]c12 (stereo not drawn) [Compound 2-118, 3-[4-(3-amino-3-methylpyrrolidin-1-yl)-5-(4-methyl-1H-1,3-benzodiazol-2-yl)pyridin-3-yl]-5-fluorobenzamide] |
| < 10 | Cc1cccc2nc(-c3cncc(-c4cccc(C(N)=O)c4)c3N3CC[C@H](N)C3)[nH]c12 [Compound 2-97, 3-{4-[(3S)-3-aminopyrrolidin-1-yl]-5-(4-methyl-1H-1,3-benzodiazol-2-yl)pyridin-3-yl}benzamide] |
| < 10 | N#Cc1cc(-c2cncc(-c3nc4cccc(C#N)c4[nH]3)c2N2CC[C@H](N)C2)ccc1F [Compound 2-158, 2-{4-[(3S)-3-aminopyrrolidin-1-yl]-5-(3-cyano-4-fluorophenyl)pyridin-3-yl}-1H-1,3-benzodiazole-4-carbonitrile] |
| 100 to 1000 | COCCn1c(-c2cncc(-c3cc(F)cc(C#N)c3)c2N2CC[C@H](N)C2)nc2ccccc21 [Compound 2-112, 3-{4-[(3S)-3-aminopyrrolidin-1-yl]-5-[1-(2-methoxyethyl)-1H-1,3-benzodiazol-2-yl]pyridin-3-yl}-5-fluorobenzonitrile] |
| > 1000 | N#Cc1cc(F)cc(-c2cncc(-c3nc4cccc(F)c4[nH]3)c2N2C[C@@H](N)C[C@H]2CO)c1 [Compound 2-88, 3-{4-[(2S,4S)-4-amino-2-(hydroxymethyl)pyrrolidin-1-yl]-5-(4-fluoro-1H-1,3-benzodiazol-2-yl)pyridin-3-yl}-5-fluorobenzonitrile] |
| 10 to 100 | Cn1c(-c2cncc(-c3cc(F)cc(C#N)c3)c2N2CC[C@H](N)C2)nc2ccccc21 [Compound 2-110, 3-{4-[(3S)-3-aminopyrrolidin-1-yl]-5-(1-methyl-1H-1,3-benzodiazol-2-yl)pyridin-3-yl}-5-fluorobenzonitrile] |
| 100 to 1000 | N#Cc1cccc(-c2cncc(-c3nc4c(C(N)=O)cccc4[nH]3)c2N2CC[C@H](N)C2)c1 [Compound 2-83, 2-{4-[(3S)-3-aminopyrrolidin-1-yl]-5-(3-cyanophenyl)pyridin-3-yl}-1H-1,3-benzodiazole-4-carboxamide] |
| < 10 | Cc1ccc(F)c2nc(-c3cncc(-c4cc(F)cc(C(N)=O)c4)c3N3CC[C@H](N)C3)[nH]c12 [Compound 2-96, 3-{4-[(3S)-3-aminopyrrolidin-1-yl]-5-(7-fluoro-4-methyl-1H-1,3-benzodiazol-2-yl)pyridin-3-yl}-5-fluorobenzamide] |
| < 10 | Cc1cccc2nc(-c3cncc(-c4cccc(C(N)=O)c4F)c3N3CCC(C)(N)C3)[nH]c12 (stereo not drawn) [Compound 2-138, 3-[4-(3-amino-3-methylpyrrolidin-1-yl)-5-(4-methyl-1H-1,3-benzodiazol-2-yl)pyridin-3-yl]-2-fluorobenzamide] |

Same assay, conditions: SST5 over SST2, class symbols

| Fold selectivity for SST5 vs SST2 | Structure (SMILES) |
| --- | --- |
| +++ (+++=≥500) | COc1cccc(-c2cncc(-c3nc4cccc(F)c4[nH]3)c2N2CCC(C)(N)C2)c1 (stereo not drawn) [Compound 2-11, 1-[3-(4-fluoro-1H-1,3-benzodiazol-2-yl)-5-(3-methoxyphenyl)pyridin-4-yl]-3-methylpyrrolidin-3-amine] |
